Laboratory results from patent US20080269204A1, “Compounds and Methods of Use Thereof” (priority 2004, published 2008).

Test system: TNF-α production by PMBC
Test: Inhibition of TNF-α production by peripheral blood monocyte cells (PMBC), LPS-stimulated
Assay type: cell-based
Details: 1 ug/mL LPS, 24 hours at 37° C, TNF-α quantified by EIA
Method: Inhibition of TNF-α Production By Peripheral Blood Monocyte Cells (PMBC)
PMBC in RPMI 1640 Cell Culture Medium (containing 1% Penicillin and 1% Streptomycin) are aliquoted into 96-well plates at 5×10^5 cells/well and pre-incubated with test compounds for 30 minutes at 37° C. After incubation, 1 ug/mL LPS is added to each well to stimulate TNF-α production and the plate is incubated for 24 hours at 37° C. After incubation, the supernatant is removed and the TNF-α secreted is quantified using EIA detection kits commercially available from R&D Systems (USA). The results from this assay are expressed as percent inhibition of control activity, with the control being stimulated wells with no test compound. Dexamethasone is used as a standard reference compound in the assay and is tested with each experiment. All test compounds are diluted from 10 mM stock solutions in 100% DMSO.

| Structure (SMILES) | IC50 [nM] |
| --- | --- |
| O=C1COc2ccccc2N1CCCCCB(O)O [Example 7, 5-(2,3-dihydro-3-oxobenzo[b][1,4]oxazin-4-yl)pentylboronic acid] | 360 |
| O=C1COc2cc([N+](=O)[O-])ccc2N1CCCCCB(O)O [Example 6, 5-(2,3-dihydro-7-nitro-3-oxobenzo[b][1,4]oxazin-4-yl)pentylboronic acid] | 74 |
| CCOC(=O)CC1Sc2ccccc2N(CCCCCB(O)O)C1=O (stereo not drawn) [Example 8, ethyl 2-(3,4-dihydro-3-oxo-4-(5-pentylboronic acid)-2H-benzo[b][1,4]thiazin-2-yl)acetate] | 810 |
| O=C1CSc2ccccc2N1CCCCCB(O)O [Example 4, 5-(2,3-dihydro-3-oxobenzo[b][1,4]thiazin-4-yl)pentylboronic acid] | 700 |
| O=C1CSc2cc(Cl)ccc2N1CCCCCB(O)O [Example 5, 5-(7-chloro-2,3-dihydro-3-oxobenzo[b][1,4]thiazin-4-yl)pentylboronic acid] | 80 |
| O=C1COc2ccc(F)cc2N1CCCCCB(O)O [Example 3, 5-(6-fluoro-2,3-dihydro-3-oxobenzo[b][1,4]oxazin-4-yl)pentylboronic acid] | 260 |
